Results published in US20120196915A1, “Antitumor 1,2-Diphenylpyrrole Compounds and their Preparation Process” (ARGON PHARMA, S.L., priority 2009, published 2012).

Tests used:
PC3 cell line = assay: Cell viability assay (XTT), PC3; assay type: cell-based, human; details: PC3, 4 h exposure, 20, 40 or 60 μM, in comparison with the comparative compound
Protocol: (§1) H-727 and H-460 cell lines, derived from human lung carcinoma, and human prostate carcinoma PC3 cells, were cultured in RPMI 1640 medium supplemented with 10% fetal bovine serum, 1% glutamine and 100 units/ml penicillin/streptomycin (Life Technologies, Inc.). LS174T cells, derived from human colorectal carcinoma, and CAL51 cells, from breast carcinoma, were cultured in DMEM medium supplemented with 10% fetal bovine serum, 1% glutamine and 100 units/ml penicillin/streptomycin (Life Technologies, Inc.). All cell lines were incubated at 37° C. in a humidified atmosphere containing 5% CO2. The stock solution of each compound was reconstituted in DMSO and diluted in culture media before use.
(§2) Antitumor activity was evaluated measuring cell metabolic capacity (viability), using the Cell Proliferation Kit II (XTT) and following the recommendations of the manufacturer (Roche Diagnostics). The assays were carried out in triplicates, with controls containing unexposed cells, cells with vehicle, or media plus compound. Cells were seeded into 96-well plates in 100 μl of media and incubated for 24 h. […] After 4 h of incubation at 37° C., the absorbance at 490 nm was read. The growth inhibitory activity was obtained subtracting the absorbance of the blanks and expressed as percentage of cell growth inhibition, as compared with untreated controls.

CAL51 cell line = assay: Cell viability assay (XTT), CAL51; assay type: cell-based; details: CAL51, 4 h exposure, 20, 40 or 60 μM, in comparison with the comparative compound
Protocol: as §1, §2

LS174T cell line = assay: Cell viability assay (XTT), LS174T; assay type: cell-based, human; details: 4 h exposure, 20, 40 or 60 μM, in comparison with the comparative compound
Protocol: as §1, §2

H-460 cell line = assay: Cell viability assay (XTT), H-460; assay type: cell-based, human; details: H-460, 4 h exposure, 20, 40 or 60 μM, in comparison with the comparative compound
Protocol: as §1, §2

H-727 cell line = assay: Cell viability assay (XTT), H-727; assay type: cell-based, human
Protocol: as §1, §2

Structure (SMILES): NS(=O)(=O)c1ccc(-n2cc(C(F)(F)F)cc2-c2cc(C(F)(F)F)cc(C(F)(F)F)c2)cc1 [Example 2, 4-[2-(3,5-Bis(trifluoromethyl)phenyl)-4-(trifluoromethyl)-1H-pyrrol-1-yl]benzenesulfonamide]
- tumor cell viability (PC3 cell line): significantly reduced tumor cell viability
- tumor cell viability (CAL51 cell line): significantly reduced tumor cell viability
- tumor cell viability (LS174T cell line): significantly reduced tumor cell viability
- tumor cell viability (H-460 cell line): significantly reduced tumor cell viability
- tumor cell viability (H-727 cell line; H-727, 4 h exposure, 20, 40 or 60 μM, in comparison with the comparative compound): significantly reduced tumor cell viability
- reduction in the tumor cell viability percentage (H-727 cell line; H-727, at 40 μm, 4 h, as compared to the comparative example): more than 50%
